The results in this text go back to ChEMBL document CHEMBL1144908, “5-HT4 receptor ligands: applications and new prospects” (J Med Chem, 2003).

Assay [1] has as its target 5-hydroxytryptamine receptor 4 (Mus musculus) (UniProt P97288). Briefly: Tested for 5-hydroxytryptamine 4 binding affinity against zacopride.
Assay [2] has the same target. Briefly: Tested for 5-hydroxytryptamine 4 binding affinity against cisapride.
For assay [3] the target is unchanged. Briefly: Tested for 5-hydroxytryptamine 4 binding affinity against renzapride.
Assay [4] deals with Serotonin 3 (5-HT3) receptor. Briefly: Tested for 5-hydroxytryptamine 3 receptor antagonist activity. The class given is functional.
Assay [5] addresses 5-hydroxytryptamine receptor 4 (Cavia porcellus) (UniProt O70528). Description: Tested for affinity towards 5-hydroxytryptamine 4 receptor in electrically stimulated longitudinal muscle preparation of guinea pig ileum. The assay is classed as tissue-based.
Assay [6] has as its target T1, 5-hydroxytryptamine receptor 4 (Homo sapiens, UniProt Q13639). Description: (§1) Tested for 5-hydroxytryptamine 4 receptor antagonist activity. The class given is functional.
In assay [7] the target is T1, 5-hydroxytryptamine receptor 4. Described as §1. The assay is classed as functional. This is another data set of the same source.
The target is the same in assay [8]. The description is as §1. The assay is classed as functional. This is another data set of the same source.
The target in assay [9] is 5-hydroxytryptamine receptor 4 (Cavia porcellus, UniProt O70528). Briefly: Tested for affinity against 5-hydroxytryptamine 4 receptor in the myenteric plexus of the guinea pig ileum. The class given is tissue-based.
Sequence of 5-hydroxytryptamine receptor 4 (Cavia porcellus, UniProt O70528) (O70528 whole entry): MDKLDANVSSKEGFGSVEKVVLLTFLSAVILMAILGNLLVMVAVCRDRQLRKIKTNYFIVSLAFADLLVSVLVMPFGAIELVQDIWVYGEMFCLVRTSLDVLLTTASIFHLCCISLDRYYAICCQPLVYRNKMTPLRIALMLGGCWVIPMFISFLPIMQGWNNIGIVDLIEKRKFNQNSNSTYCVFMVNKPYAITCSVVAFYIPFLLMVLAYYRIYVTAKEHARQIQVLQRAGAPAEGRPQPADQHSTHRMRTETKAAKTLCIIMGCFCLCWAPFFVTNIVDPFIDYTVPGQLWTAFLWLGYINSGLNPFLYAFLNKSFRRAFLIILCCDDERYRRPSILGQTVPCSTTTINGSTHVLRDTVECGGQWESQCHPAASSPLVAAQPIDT
Assay [10] concerns the target 5-hydroxytryptamine receptor 4 (Rattus norvegicus) (UniProt Q62758). Description: Tested for affinity towards 5-hydroxytryptamine 4 receptor in relaxation of rat oesophagus.
For a further assay, the species on record is Cavia porcellus. Description: Tested for inhibitory activity against 5-HT induced contractions of guinea pig ileum. The assay is classed as functional.
For assay [11], the target named is 5-hydroxytryptamine receptor 4 (Cavia porcellus) (UniProt O70528). Description: Tested for affinity towards 5-hydroxytryptamine 4 receptor in guinea pig distal colon preparation. The class given is tissue-based.
Sequence of 5-hydroxytryptamine receptor 4 (Cavia porcellus) (O70528 whole entry): as above
The species entered for the next assay is Rattus norvegicus. Briefly: Tested for affinity towards 5-HT receptor in relaxation of carbachol contracted rat oesophaga muscularis. The class given is functional.
Assay [12] concerns the target 5-hydroxytryptamine receptor 4 (Rattus norvegicus, UniProt Q62758). Description: Efficient 5-hydroxytryptamine 4 agonist in the rat tunica muscularis mucosae. The class given is functional, tissue-based, Muscularis mucosa.
Assay [13] has as its target T2, 5-hydroxytryptamine receptor 3A (Homo sapiens, UniProt P46098).
T2 sequence (P46098 whole entry): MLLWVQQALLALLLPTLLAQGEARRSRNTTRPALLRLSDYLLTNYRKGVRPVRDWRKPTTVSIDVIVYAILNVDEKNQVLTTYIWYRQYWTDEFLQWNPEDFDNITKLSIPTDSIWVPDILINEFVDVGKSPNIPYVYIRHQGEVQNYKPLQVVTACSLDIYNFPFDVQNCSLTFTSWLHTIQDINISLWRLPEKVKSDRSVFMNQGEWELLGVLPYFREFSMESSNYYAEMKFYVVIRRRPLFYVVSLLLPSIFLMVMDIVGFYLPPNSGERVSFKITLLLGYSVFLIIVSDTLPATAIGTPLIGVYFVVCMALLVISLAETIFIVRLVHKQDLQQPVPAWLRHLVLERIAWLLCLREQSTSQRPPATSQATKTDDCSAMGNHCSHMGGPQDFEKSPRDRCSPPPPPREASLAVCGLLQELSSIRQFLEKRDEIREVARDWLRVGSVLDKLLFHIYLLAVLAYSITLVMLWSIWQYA
Briefly: (§2) Compound was tested for 5-hydroxytryptamine 3 receptor binding affinity.

Assay [14] addresses T1, 5-hydroxytryptamine receptor 4. Description: Tested for affinity towards 5-hydroxytryptamine 4 receptor.
Assay [15] addresses Serotonin 3 (5-HT3) receptor. Described as §2. The assay is classed as protein-complex assay.
The target in assay [16] is T2, 5-hydroxytryptamine receptor 3A. Briefly: Tested for 5-hydroxytryptamine 3 receptor agonist activity. The assay is classed as functional.
A short description of assay [17]: Tested for potency against electrically stimulated myenteric plexus. The assay is classed as functional.

Sequence of 5-hydroxytryptamine receptor 4 (Mus musculus) (P97288 whole entry, looked up): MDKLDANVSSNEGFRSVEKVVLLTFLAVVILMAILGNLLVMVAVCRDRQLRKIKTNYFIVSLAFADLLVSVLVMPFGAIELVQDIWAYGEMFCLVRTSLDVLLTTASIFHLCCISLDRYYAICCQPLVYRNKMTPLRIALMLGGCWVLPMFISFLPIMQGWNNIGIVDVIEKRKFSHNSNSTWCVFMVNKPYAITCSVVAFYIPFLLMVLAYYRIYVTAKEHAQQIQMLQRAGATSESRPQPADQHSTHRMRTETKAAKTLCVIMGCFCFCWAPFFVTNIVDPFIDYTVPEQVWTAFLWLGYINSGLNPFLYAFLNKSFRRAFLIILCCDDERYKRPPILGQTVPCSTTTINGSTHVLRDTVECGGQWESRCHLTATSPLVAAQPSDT
T1 sequence (Q13639 whole entry): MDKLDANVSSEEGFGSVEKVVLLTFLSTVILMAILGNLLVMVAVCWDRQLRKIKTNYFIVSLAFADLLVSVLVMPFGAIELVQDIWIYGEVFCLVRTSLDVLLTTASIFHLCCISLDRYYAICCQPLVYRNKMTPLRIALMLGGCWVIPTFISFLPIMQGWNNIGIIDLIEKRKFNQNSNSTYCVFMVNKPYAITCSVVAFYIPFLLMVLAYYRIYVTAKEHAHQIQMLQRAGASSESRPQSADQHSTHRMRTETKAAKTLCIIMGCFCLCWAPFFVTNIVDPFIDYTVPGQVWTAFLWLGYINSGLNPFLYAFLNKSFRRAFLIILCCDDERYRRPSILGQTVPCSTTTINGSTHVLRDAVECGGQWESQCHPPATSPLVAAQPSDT
Sequence of 5-hydroxytryptamine receptor 4 (Rattus norvegicus) (Q62758 whole entry): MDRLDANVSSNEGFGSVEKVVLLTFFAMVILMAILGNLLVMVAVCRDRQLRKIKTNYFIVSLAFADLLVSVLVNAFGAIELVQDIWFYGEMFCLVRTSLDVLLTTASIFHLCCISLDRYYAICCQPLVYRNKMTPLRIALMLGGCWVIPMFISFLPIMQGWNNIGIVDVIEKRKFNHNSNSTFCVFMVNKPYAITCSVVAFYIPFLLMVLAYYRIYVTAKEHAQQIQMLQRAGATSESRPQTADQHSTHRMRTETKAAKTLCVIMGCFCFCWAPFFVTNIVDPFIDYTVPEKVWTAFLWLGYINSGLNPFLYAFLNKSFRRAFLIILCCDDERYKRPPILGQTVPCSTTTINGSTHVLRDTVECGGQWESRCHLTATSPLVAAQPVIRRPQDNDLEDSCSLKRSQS
Sequence of 5-hydroxytryptamine receptor 4 (Rattus norvegicus, UniProt Q62758) (Q62758 whole entry): as above

For `COc1cc(N)c(Cl)cc1C(=O)NC1CCN2C(C)CCCC2C1` (centres undefined) [BRL-20627], the results for the EC50 in assay [1], in assay [2] and in assay [3] were 1120 nM, 72.4 nM and 126 nM, respectively.

Consider `CNC1(CNC(=O)c2cc(Cl)c(N)cc2OC)CCCC1`, for which the affinity in assay [4] corresponds to a Ki of 9 nM.

`N=C(N)N/N=C/c1c[nH]c2ccc(O)cc12` displayed an Activity in assay [5] of 8.8 pD2.

Regarding `CC(C)N1CCN(CCNC(=O)n2c(=O)n(C3CC3)c3ccccc32)CC1`, the Ki in assay [6] is 16.6 nM; in assay [7], 6.7 nM. Take `CC(C)n1c(=O)n(C(=O)NCCN2CCN(C)CC2)c2ccccc21`: the Ki in assay [7] turned out to be 91.9 nM. This compound also displayed an Intrinsic activity in [8] of 0.94. Turning to `CCOc1cc(N)c(Cl)cc1C(=O)NCC1CN(Cc2ccc(F)cc2)CCO1` (centres undefined) [MOSAPRIDE], in [9], the affinity, expressed as Ki, was 84 nM. `CCCCN1CCC(CCC(=O)c2cc(Cl)c(N)cc2OC)CC1`: the Activity in [10] amounted to 8.4 pEC50.

The compound `CCCCCN(C)C(=N)N/N=C/c1c[nH]c2c(C)cc(OC)cc12` yielded an Activity in the assay listed under Cavia porcellus of 8.4 pA2. `O=C(NCC1CCN2CCCCC2C1)c1c2n(c3ccccc13)CCCO2` (centres undefined) gave an Activity in assay [11] of 9.5 pIC50. As for `COc1cc(COc2cc(N)c(Cl)cc2C(=O)CCC2CCN(CCNS(C)(=O)=O)CC2)cc(OC)c1`, the Activity in the assay filed under Rattus norvegicus was found to be 9.2 pKi. For the compound `COc1cc(N)c(Cl)cc1C(=O)NC[C@@H]1CCN2CCC[C@@H]12`, the half-maximal effective concentration (EC50) in assay [12] came to 23.7 nM. The Ki in assay [13] came out at 152 nM. Compound `CCCCCNC(=N)N/N=C/c1c[nH]c2ccc(O)cc12` gave an Activity in assay [5] of 9.3 pD2. In [14], `CCCCN1CCC(CNC(=O)c2cc(Cl)c(N)c3c2OCCO3)CC1` showed an Activity of 9 pKa. Consider `COc1cc(N)c(Cl)cc1C(=O)NC1CC2CCC(C1)N2C` (centres undefined), for which the EC50 in assay [1] is 1120 nM; in assay [2] it was 72.4 nM; in assay [3], 126 nM.

In the assay listed under Rattus norvegicus, `COc1cc(COc2cc(N)c(Cl)cc2C(=O)CCCCN2CCCCC2)cc(OC)c1` displayed an Activity of 8.5 pKi. In turn, `CCCCCNC(=N)N/N=C/c1c[nH]c2ccc(OC)cc12` gave an Activity in assay [5] of 6.9 pD2.

For `CCCCN1CCC(CNC(=O)c2c3n(c4ccccc24)CCCO3)CC1`, the Activity in assay [11] is 9.2 pIC50. In assay [10], `COc1cc(N)c(Cl)cc1C(=O)CCC1CCN(CCNS(C)(=O)=O)CC1` registered an Activity of 8.6 pEC50.

With `CCCCN1CCC(COC(=O)c2c3n(c4ccccc24)CCCO3)CC1`, in assay [11], the Activity is 10.6 pIC50. In the case of `COc1cc(N)c(Cl)cc1C(=O)NC1CCN(CCCOc2ccc(F)cc2)CC1OC` (centres undefined) [CISAPRIDE], the Ki in [15] was found to be 152 nM. Compound `Nc1cc2c(cc1Cl)C(=O)NC1CCN(CCOCCO2)CC1` registered a Ki in [16] of 53.2 nM. The compound also showed an EC50 in [17] of 69 nM.

Usually EC50 stands for the concentration at which the effect is half-maximal. Lower therefore signals a more potent agent. The term Ki denotes a measure of affinity in units of concentration, obtained from inhibition or displacement. A high value points to a looser hold on the target.
